Measured values as given in patent publication US20190330167A1, “ACTIVATORS OF HIV LATENCY” (priority 2016, published 2019).
Read-outs that look alike come from different tables or passages of the source.

Key:
[1] = test system: HIV-1 long terminal repeat (LTR)-driven luciferase reporter gene in FlipIn.FM HEK293 cells; assay: cells; assay type: cell-based
Protocol: FIG. 44. […] The FlipIn.FM model of HIV-1 latency was treated with JQ1 (+) and DP#14 (Compound 7) alone at 10 μM and in combination, and the HIV-1 gene expression measured 48 hrs post treatment. Error bars represent standard deviation of n=3 experiments. OPTI represents media alone, without DP#14.
FIG. 46. […] The FlipIn.FM model of HIV-1 latency was treated with PFI-1 and DP#14 alone at 10 μM and in combination, and the HIV-1 gene expression measured 48 hrs post treatment. Error bars represent standard deviation of n=3 experiments. OPTI represents media alone, without DP#14.
Explicitly, HEK293 derived FlipIn-FM and FlipIn-RV dual reporter cells each include a single stable HIV-1 long terminal repeat (LTR)-driven luciferase reporter genes, with a second complimentary non-HIV (off-target) luciferase reporter. These cell lines model post integration latency and read-through transcription by expressing a low level of HIV-1 Tat protein via a native Internal Ribosome Entry Site (IRES) found within Tat, from a chimeric cellular-tat gene cassette. FlipIn-FM and FlipIn-RV clones were chosen for low basal levels of LTR activity and high responsiveness to Tat as well as many Latency Reversing Agents (LRAs).
The dual reporter cell lines contain three stably integrated constructs that together allow for detection of novel LRAs, capable of potent and specific HIV reactivation. The FlipIn.FM line contains a proviral LTR-driven nef/CBR reporter fusion gene, allowing for detection of viral gene expression. A second CMV-driven CBG luciferase reporter allows for detection of off target drug effects, including non-specific activation and drug toxicity. The third construct contains the first coding exon of HIV-1 tat, within human Growth Hormone (hGH) as a chimeric gene, expressing HIV-1 Tat protein from an IRES mechanism that underlies the tat exon. This construct models read-through transcription and the low level of Tat protein expression that occurs during post integration latency. The counter screening reverse cell line, FlipIn.RV, contains the same three components with the Click Beetle Luciferase genes in the opposite orientation (LTR-CBG and CMV-CBR) for counter screening.
Compounds were evaluated in an 11-point titration using normal CMV-CBG/LTR-CBR reporter cell line and an 11 point reverse CMV-CBR/LTR-CBG reporter cell line.
The FlipIn cell lines were therefore designed with a dual purpose, to detect novel compounds that reactivate HIV-1 and to also screen out compounds that behaved in a largely non-specific manner. To achieve the latter, the cell lines contain an “off target” reporter gene construct, driven by the unrelated CMV-IE promoter, that allows for the detection of drug mediated off target effects including global gene activation as well as possible toxicity.
The HIV-LTR driven latent reporter gene identifies the HIV-specific activation, and the term “global reporter” is interchangeable with “off target reporter” and refers to the unrelated CMV-IE promoter driven reporter gene, which is used as a surrogate for global gene activation. […] The highest concentration tested here was 40 μM.

[2] = test system: latent HIV in resting memory CD4+ T cells isolated by leukapheresis from HIV+ donors on antiretroviral therapy; assay type: cell-based, HIV-1; conditions: 72 hrs
Source text: FIG. 41a. […] Resting memory CD4+ T cells isolated by leukapheresis from HIV+ donors on antiretroviral therapy were reactivated for 72 hrs using known LRAs including vorinostat (Vor) also known as suberanilohydroxamic acid, another hydroxamic acid panobinostat (Pan), and the depsipeptide Romidepsin (Rom) that are all HDACi, together with JQ1 (+) which is a thienotriazolodiazepine known to inhibit the BET family of bromodomain proteins including BRD2, BRD3, and BRD4, and compared with compounds according to the present invention DP#6 (Compound 41), DP#14 (Compound 7), and DP#16 (Compound 64).
FIG. 41c. […] Resting memory CD4+ T cells isolated by leukapheresis from HIV+ donors on antiretroviral therapy were reactivated for 72 hrs using known (vorinostat, Vor; panobinostat, Pan; romidepsin, Rom; and JQ1 (+)) and compounds according to the present invention (DP#6 (Compound 41), DP#14 (Compound 7), and DP#16 (Compound 64)).
FIG. 42c. […] Resting memory CD4+ T cells isolated by leukapheresis from HIV+ donors on antiretroviral therapy were reactivated for 72 hrs using known (JQ1 (+)) and compounds according to the present invention (DP#14 (Compound 7)) alone and in combination, and HIV-1 RNA detected through qPCR.
Total peripheral blood mononuclear cells (PBMC) were stored frozen in liquid nitrogen and prior to use, vials of frozen cells (0.5×10^8 PBMCs/vial or 1×10^8 PBMCs/vial) were quick thawed in a 42° C. water bath. Cells were promptly transferred to a 15 mL tube with 5 mL FBS dropwise then, then 6 mL of RF10 was added. Cells were pelleted at 300 g for 10 min at room temperature. Following aspiration, the cells were resuspended in RF10, pooled into a 50 mL tube which was topped up with RF10. PBMC were pelleted again at 300 g for 10 min at room temperature. Following aspiration, the cells were resuspended in PBS(−/−) and counted. CD4+ T cells were then isolated from 4×10^8 PBMCs that were pelleted and resuspended in PBS(−/−) at 1×10^7 cells/40 μL. 10 μL of CD4+ T cell Biotin-Antibody cocktail (Miltenyi Biotec) for every 1×10^7 cells was added and the mix refrigerated for 5 min. 30 μL of PBS(−/−) for every 1×10^7 cells was added, and 20 μL of the CD4+ T cell MicroBeads for every 1×10^7 cells was added and the mix refrigerated for 10 min. Unlabelled CD4+ T cells were then isolated by negative selection using magnetic separation. CD4+ T cells were then counted before being diluted to 4×10^6 cells/500 μL in RF10 for each condition and seeded into a 48 well plate.
Latent HIV was reactivated in the presence of the HIV integrase inhibitor Raltagravir (Ral) to prevent any further rounds of infection. Ral was made to [2 μM] in RF10+IL-2 (2 U/mL), and used to make 1 mL preparation of each drug up at [×2]. 500 μL of the [×2 Ral/IL-2/drug] was then added to the appropriate wells containing cells. Cells were transported to PC3 and incubated for 72 hrs.
Following reactivation, 800 μL of cell supernatant was transferred to labeled 1.5 mL screwcap tubes, pelletted at 800 g for 10 min then transferred to a second set of tubes and frozen for possible use at a later date. 800 μL of PBS(−/−) was added to each well to mix the cells and 50 μL of cells transferred to another set of tubes for live/dead staining and flow cytometry. Cells were pelleted at 400 g for 10 min, the media aspirated and cells resuspended in 100 μL of a [×1] APC-cy7 live/dead stain (Life technologies).

O=C(CCCOc1ccccc1)Nc1ncc(Br)s1 [Compound 7]
fold change in HIV-1 gene expression over the unstimulated baseline ([1]; FlipIn.FM model, alone at 10 μM and in combination, 48 hrs post treatment): 4.2 fold
EC50 ([1]; Human immunodeficiency virus 1, HEK293, HIV-LTR driven latent reporter, 11-point, 2-fold dilution series, highest concentration 40 μM, read-out: Latent reporter Av EC50): 1.64 µM
induction of HIV-1 gene expression, % of the normalized value ([2]; at 5 μM, normalized between unstimulated baseline and PMA as 100%): 24%
induction of HIV-1 gene expression, % of the normalized value ([2]; normalized between unstimulated baseline and PMA positive control as 100%, concentration not given): 24%
